The text below walks through data of US20210220328A1, “PYRROLE DERIVATIVES AS ACC INHIBITORS” (Almirall, S.A., priority 2017, published 2021).

The assay concerns immortalized human sebocyte cell line, SZ95. Kind of assay: In vitro assay of inhibition of lipid synthesis. The format is cell-based. The following applies: 48 h, SZ95 sebocytes. How it is done:
In Vitro Assay of Inhibition of Lipid Synthesis
To evaluate the inhibition of lipid synthesis, the immortalized human sebocyte cell line, SZ95 (stablished by Zouboulis, C. C. et al J Invest Dermatol 1999; 113:1011-20), was treated with arachidonic acid (AA) in presence or absence of compound. Lipids were detected by using a lipid sensing fluorophore.
Compounds were dissolved in dimethylsulfoxide (DMSO) 100%. Then the stocks were serial diluted 1/3 in DMSO 100%, and this battery of solutions were diluted 1/10 in culture medium, to minimize the percentage of the DMSO over cells.
10 k cells were plated in 384 well microtiter plates and incubated at 37° C. and 5% CO2 in DMEM/F12 supplemented with 10% FBS, 1.25 ng/ml of rhEGF and GA-1000 before of compound and stimulus addition. After 24 h, compounds dissolved in culture media were added over cells, diluting the solutions prepared 1/40 in the final volume of the assay. Then, cells and compounds were preincubated for 30 min at 37° C. and 5% CO2. After this prior incubation, the lipid synthesis was induced by 75 μM of AA final solution, preparing a solution 10× in culture media. Finally, SZ95 treated were incubated for 48 h at 37° C. and 5% CO2.
Neutral lipids were measured using AdipoRed™, purchased from LONZA. To do that, cells were washed with PBS and incubated with a solution of AdipoRed™ (final dilution 1/80 in PBS) for 30 min at room temperature. After the staining process, the fluorescence intensity (FI) was quantified using a fluorescence plate reader (excitation 485 nm; emission 535).
Activity of compounds were calculated as % of inhibition considering the maximal fluorescence for AA-stimulated cells and the minimum fluorescence for unstimulated cells as controls.

[1] abbreviates: lipid synthesis induced by 75 μM arachidonic acid, AdipoRed fluorescence, Table 1.
[2] abbreviates: 75 μM arachidonic acid, AdipoRed, Table 2, finer classes for compounds with IC50 less than 250 nM.

For orientation: IC50 means the concentration at which inhibition is half-maximal. Read a low IC50 as greater potency.

Structures are written as SMILES.

Consider `CCCCCCCCCCCCCc1c[nH]c(C(=O)OCCCCCCCCO)c1F` [Example 38, 8-Hydroxyoctyl 3-fluoro-4-tridecyl-1H-pyrrole-2-carboxylate], for which the IC50 under setting [1] lay within 250 to 1000 nM.

Consider `CCCCCCCCCCCCCc1c[nH]c(C(=O)OCCCCCCCCCO)c1F` [Example 39, 9-Hydroxynonyl 3-fluoro-4-tridecyl-1H-pyrrole-2-carboxylate], for which the IC50 under setting [2] was under 50 nM and the IC50 under setting [1] was under 250 nM.

For `CCCCCCCCCCCCCc1c[nH]c(C(=O)OCC(O)CO)c1F` (stereo not drawn) [Example 40, 2,3-Dihydroxypropyl 3-fluoro-4-tridecyl-1H-pyrrole-2-carboxylate], the IC50 reads like this: under setting [2], under 50 nM; under setting [1], under 250 nM.

`CCCCCCCCCCCCCc1c[nH]c(C(=O)OC(CO)CO)c1F` [Example 41, 1,3-Dihydroxypropan-2-yl 3-fluoro-4-tridecyl-1H-pyrrole-2-carboxylate]: the IC50 was under 50 nM under setting [2] and under 250 nM under setting [1].

As to `CCCCCCCCCCCCCc1c[nH]c(C(=O)OCCOCCOCCOCCO)c1F` [Example 42, 2-(2-(2-(2-Hydroxyethoxy)ethoxy)ethoxy)ethyl 3-fluoro-4-tridecyl-1H-pyrrole-2-carboxylate], the IC50 under setting [2] was 100 to 250 nM and the IC50 under setting [1] was under 250 nM.

`CCCCCCCCCCCCCc1c[nH]c(C(=O)OCCOCCOCC)c1F` [Example 43, 2-(2-Ethoxyethoxy)ethyl 3-fluoro-4-tridecyl-1H-pyrrole-2-carboxylate]: the IC50 was under 50 nM under setting [2] and under 250 nM under setting [1].

Compound `CCCCCCCCCCCCCc1c[nH]c(C(=O)OC(C)OC(=O)OC(C)C)c1F` (stereo not drawn) [Example 44, 1-((Isopropoxycarbonyl)oxy)ethyl 3-fluoro-4-tridecyl-1H-pyrrole-2-carboxylate] had an IC50 under setting [2] of under 50 nM and a concentration for half-maximal inhibition (IC50) under setting [1] of under 250 nM.

Take `CCCCCCCCCCCCCc1c[nH]c(C(=O)OC(C)OC(=O)OC(C)(C)C)c1F` (stereo not drawn) [Example 45, 1-((Tert-butoxycarbonyl)oxy)ethyl 3-fluoro-4-tridecyl-1H-pyrrole-2-carboxylate]: the IC50 is, setting by setting: under setting [2], 50 to 100 nM; under setting [1], under 250 nM.

Take `CCCCCCCCCCCCCc1c[nH]c(C(=O)OC(C)OC(=O)OCCCCCCCCC)c1F` (stereo not drawn) [Example 46, 1-(((Nonyloxy)carbonyl)oxy)ethyl 3-fluoro-4-tridecyl-1H-pyrrole-2-carboxylate]: the IC50 under setting [1] was over 5000 nM.

As to `CCCCCCCCCCCCCc1c[nH]c(C(=O)OC(C)OC(=O)OC2CCCCC2)c1F` (stereo not drawn) [Example 47, 1-(((Cyclohexyloxy)carbonyl)oxy)ethyl 3-fluoro-4-tridecyl-1H-pyrrole-2-carboxylate], the IC50 is, setting by setting: under setting [2], 50 to 100 nM; under setting [1], under 250 nM.

On to `CCCCCCCCCCCCCc1c[nH]c(C(=O)OC(C)OC(=O)OCc2ccccc2)c1F` (stereo not drawn) [Example 48, 1-(((Benzyloxy)carbonyl)oxy)ethyl 3-fluoro-4-tridecyl-1H-pyrrole-2-carboxylate], for which the IC50 was under 50 nM under setting [2] and under 250 nM under setting [1].

For `CCCCCCCCCCCCCc1c[nH]c(C(=O)OC(C)OC(=O)OCCOC)c1F` (stereo not drawn) [Example 49, 1-(((2-Methoxyethoxy)carbonyl)oxy)ethyl 3-fluoro-4-tridecyl-1H-pyrrole-2-carboxylate], the IC50 is, setting by setting: under setting [2], under 50 nM; under setting [1], under 250 nM.

Regarding `CCCCCCCCCCCCCc1c[nH]c(C(=O)OC(C)OC(=O)OCCCO)c1F` (stereo not drawn) [Example 50, 1-(((3-Hydroxypropoxy)carbonyl)oxy)ethyl 3-fluoro-4-tridecyl-1H-pyrrole-2-carboxylate], the IC50 runs as follows: under setting [2], under 50 nM; under setting [1], under 250 nM.

`CCCCCCCCCCCCCc1c[nH]c(C(=O)OC(C)OC(=O)OCCOCCOCC)c1F` (stereo not drawn) [Example 51, 4-Oxo-3,5,8,11-tetraoxatridecan-2-yl 3-fluoro-4-tridecyl-1H-pyrrole-2-carboxylate] returned an IC50 under setting [2] of under 50 nM and an IC50 under setting [1] of under 250 nM.

Consider `CCCCCCCCCCCCCCc1c[nH]c(C(=O)O)c1F` [Example 52, 3-Fluoro-4-tetradecyl-1H-pyrrole-2-carboxylic acid], for which the IC50 by setting is: under setting [2], under 50 nM; under setting [1], under 250 nM.

In the case of `CCCCCCCCCCCCCCCc1c[nH]c(C(=O)O)c1F` [Example 53, 3-Fluoro-4-pentadecyl-1H-pyrrole-2-carboxylic acid], the IC50 by setting is: under setting [2], under 50 nM; under setting [1], under 250 nM.

`CCCCCCCCCCCCCCCCCc1c[nH]c(C(=O)O)c1F` [Example 54, 3-Fluoro-4-heptadecyl-1H-pyrrole-2-carboxylic acid]: the IC50 was under 50 nM under setting [2] and under 250 nM under setting [1].

For the compound `CCCCCCCCCCCCc1cc(F)c(C(=O)O)[nH]1` [Example 55, 5-Dodecyl-3-fluoro-1H-pyrrole-2-carboxylic acid], the IC50 runs as follows: under setting [2], 50 to 100 nM; under setting [1], under 250 nM.

On to `CCCCCCCCCCc1c[nH]c(C(=O)O)c1Cl` [Example 56, 3-Chloro-4-decyl-1H-pyrrole-2-carboxylic acid], for which the IC50 was 50 to 100 nM under setting [2] and under 250 nM under setting [1].

Regarding `CCCCCCCCCCCc1c[nH]c(C(=O)O)c1Cl` [Example 57, 3-Chloro-4-undecyl-1H-pyrrole-2-carboxylic acid], the IC50 by setting is: under setting [2], under 50 nM; under setting [1], under 250 nM.

For the compound `CCCCCCCCCCCCc1c[nH]c(C(=O)O)c1Cl` [Example 58, 3-Chloro-4-dodecyl-1H-pyrrole-2-carboxylic acid], the IC50 is under 50 nM under setting [2] and under 250 nM under setting [1].

For the compound `CCCCCCCCCCCCc1c[nH]c(C(=O)OCCCCCCCCCO)c1Cl` [Example 59, 9-Hydroxynonyl 3-chloro-4-dodecyl-1H-pyrrole-2-carboxylate], the IC50 under setting [1] was 250 to 1000 nM.

Under setting [1], `CCCCCCCCCCCCc1c[nH]c(C(=O)OCCN2C(=O)CCC2=O)c1Cl` [Example 60, 2-(2,5-dioxopyrrolidin-1-yl)ethyl 3-chloro-4-dodecyl-1H-pyrrole-2-carboxylate] displayed an IC50 of 1000 to 5000 nM.

`CCCCCCCCCCCCCc1c[nH]c(C(=O)O)c1Cl` [Example 61, 3-Chloro-4-tridecyl-1H-pyrrole-2-carboxylic acid] registered an IC50 under setting [2] of 100 to 250 nM and an IC50 under setting [1] of under 250 nM.

Compound `CCCCCCCCCCCCCCCc1c[nH]c(C(=O)O)c1Cl` [Example 62, 3-Chloro-4-pentadecyl-1H-pyrrole-2-carboxylic acid] had an IC50 under setting [1] of 250 to 1000 nM.

In turn, `CCCCCCCCCCCCCCCCc1c[nH]c(C(=O)O)c1Cl` [Example 63, 3-Chloro-4-hexadecyl-1H-pyrrole-2-carboxylic acid] returned an IC50 under setting [1] of 250 to 1000 nM.

As to `CCCCCCCCCCCc1cc(Cl)c(C(=O)O)[nH]1` [Example 64, 3-Chloro-5-undecyl-1H-pyrrole-2-carboxylic acid], the IC50 was 50 to 100 nM under setting [2] and under 250 nM under setting [1].

`CCCCCCCCCCCCc1cc(Cl)c(C(=O)O)[nH]1` [Example 65, 3-Chloro-5-dodecyl-1H-pyrrole-2-carboxylic acid]: the IC50 is 50 to 100 nM under setting [2] and under 250 nM under setting [1].

As for `CCCCCCCCCCCCCc1cc(Cl)c(C(=O)O)[nH]1` [Example 66, 3-Chloro-5-tridecyl-1H-pyrrole-2-carboxylic acid], the IC50 under setting [2] lay within 100 to 250 nM and the half-inhibitory concentration (IC50) under setting [1] was under 250 nM.

Under setting [1], `CCCCCCCCCCCCCCc1cc(Cl)c(C(=O)O)[nH]1` [Example 67, 3-Chloro-5-tetradecyl-1H-pyrrole-2-carboxylic acid] had an IC50 of 250 to 1000 nM.

The compound `CCCCCCCCCCCCCc1c[nH]c(C(=O)O)c1Br` [Example 68, 3-Bromo-4-tridecyl-1H-pyrrole-2-carboxylic acid] yielded an IC50 under setting [1] of 250 to 1000 nM.

For `CCCCCCCCCCCCCc1cn(CCCC)c(C(=O)O)c1F` [Example 69, 1-Butyl-3-fluoro-4-tridecyl-1H-pyrrole-2-carboxylic acid], the half-maximal inhibitory concentration (IC50) under setting [1] is 1000 to 5000 nM.

Compound `CCCCCCCCCCCCCc1cn(C(C)C)c(C(=O)O)c1F` [Example 70, 3-Fluoro-1-isopropyl-4-tridecyl-1H-pyrrole-2-carboxylic acid] had an IC50 under setting [1] of 1000 to 5000 nM.

For `CCCCCCCCCCOc1c[nH]c(C(=O)O)c1F` [Example 71, 4-(Decyloxy)-3-fluoro-1H-pyrrole-2-carboxylic acid], the IC50 reads like this: under setting [2], under 50 nM; under setting [1], under 250 nM.

Consider `CCCCCCCCCCCOc1c[nH]c(C(=O)O)c1F` [Example 72, 3-Fluoro-4-(undecyloxy)-1H-pyrrole-2-carboxylic acid], for which the IC50 runs as follows: under setting [2], under 50 nM; under setting [1], under 250 nM.

Compound `CCCCCCCCCCCCOc1c[nH]c(C(=O)O)c1F` [Example 73, 4-(Dodecyloxy)-3-fluoro-1H-pyrrole-2-carboxylic acid] displayed an IC50 under setting [2] of under 50 nM and an IC50 under setting [1] of under 250 nM.

Turning to `CCCCCCCCCCCCCOc1c[nH]c(C(=O)O)c1F` [Example 74, 3-Fluoro-4-(tridecyloxy)-1H-pyrrole-2-carboxylic acid], the IC50 was under 50 nM under setting [2] and under 250 nM under setting [1].

The compound `CCCCCCCCCCCCCCOc1c[nH]c(C(=O)O)c1F` [Example 75, 3-Fluoro-4-(tetradecyloxy)-1H-pyrrole-2-carboxylic acid] showed an IC50 under setting [2] of under 50 nM and an IC50 under setting [1] of under 250 nM.
